Experiment: ABTS radical scavenging activity
Assay type: biochemical
Settings: ABTS assay
Experimental: The ability of the nanocarriers to scavenge the free radical ABTS was used to measure their antioxidant activity. To create an ABTS free radical, a stock solution of 7 mM ABTS was combined with 2.45 mM potassium persulfate and agitated in the dark for 12 h. […] Then, a standard solution (ascorbic acid) was mixed with the ABTS+ solution and incubated for 10 min in a 37 °C water bath. After that, various concentrations (10–100 µg/mL) of all samples were prepared in ethanol, 3 mL of the solution and 1 mL of the samples were combined, and the absorbance was measured at 734 nm using a UV spectrophotometer after 6 min [66]. Finally, the following equation was used to compute ABTS scavenging activity: Scavenging (%)=(Absorbance blank−Absorbance sample)/Absorbance blank×100

| SMILES | Antioxidant activity (ABTS scavenging) [%] |
| --- | --- |
| CCCCC[C@H](O)CC(=O)CCc1ccc(O)c(OC)c1 [Formulation 6-G, 6-gingerol] | 67.01 ± 1.11 |
| O=C1O[C@H]([C@@H](O)CO)C(O)=C1O [standard solution, ascorbic acid] | 91.14 ± 0.24 |

— article PMC10298657, “QbD-Optimized, Phospholipid-Based Elastic Nanovesicles for the Effective Delivery of 6-Gingerol: A Promising Topical Option for Pain-Related Disorders” (International Journal of Molecular Sciences, 2023)
